{"source": "patent US8975250B2", "about": "“5 oxo-5,8-dihydropyrido[2,3-d]pyrimidine derivatives as CaMKII kinase inhibitors for treating cardiovascular diseases” (SANOFI, priority 2010, dated 2015)"}
{"target": "CaMKIIδ (Homo sapiens (Human), UniProt Q13557)", "assay": "radioactive test on the recombinant CaMKIIδ enzyme (ATP-γ33P incorporation into Autocamtide-2)", "format": "biochemical", "settings": "recombinant CaMKIIδ 0.37 nM, 10 μM ATP, 100 μM Autocamtide-2, two hours at 37°C", "experimental": "The compounds according to the invention were tested in vitro for their capacity to inhibit the kinase function of calcium/calmodulin-dependent protein kinase II delta (CaMKIIδ). CaMKIIδis an intracellular serine/threonine kinase. It has an enzymatic domain that is capable of using ATP to autophosphorylate. Its kinase function allows it to use ATP to phosphorylate its substrates on the serines and/or threonines. Several enzymatic and cellular tests are used to evaluate the activity of the products with respect to the kinase function of CaMKIIδ. The kinase activity of CaMKIIδis evaluated by means of a radioactive test on the recombinant CaMKIIδenzyme. The amount of ATP-γ33P incorporated into the specific substrate Autocamtide-2 during its phosphorylation by CaMKIIδis measured. The effect of the products is quantified by the concentration of product that inhibits the total activity of CaMKIIδby 50% (50% inhibitory concentration=IC50). For the determination of the IC50 values, the product is diluted in 100% of DMSO to obtain a 10 mM stock solution. The concentration range tested during the radioactive test ranges from 3 to 10 000 nM with a final concentration in the test of 1% DMSO. This concentration range may, for the most powerful compounds, be extended to 0.1 nM. On the day of the operation, 5 μl of the compounds are deposited in each well of a 96-well plate at 10 times the concentration of that to be tested. Each concentration is tested in duplicate on the same plate. The negative controls (0% activity) and positive controls (100% activity) receive 5 μL of 10% DMSO solution. A reaction premix containing the 1×kinase buffer and an ATP-MgCl2 mixture is prepared. Extemporaneously, a mixture containing the substrate Autocamtide-2 (100 μM) with calmodulin and calcium, and the solution of enzyme CaMKIIδ, is added to the premix. 45 μL of this mixture are immediately deposited per well. The final concentrations in the 50 μL final volume are as follows: compound 1X, 0.37 nM of CaMKIIδ(Invitrogen reference PV3373), 10 μM of ATP (1 μCi per well), 100 μM of Autocamtide-2, […] of calmodulin, 15 mM MgCl2, 400 μM CaCl2, 10 mM β-glycerophosphate, and 1% of DMSO. Two negative controls are prepared on each plate, a first without enzyme CaMKIIδ, and a second without substrate Autocamtide-2; these two elements are replaced with water. The plate is then incubated for two hours at 37°C. with gentle shaking. The reaction is stopped by adding 20 μL per well of H3PO4 solution. The 50 μL of each well are transferred onto a Whatman P81 filter. After rinsing twice with H3PO4 (150 μl/well per wash), followed by two rinses with 150 μL of H2O, 50 μL of scintillant are added per well. The amount of phosphorylated substrate is detected by means of a liquid scintillation counter. The inhibitory activity toward CaMKIIδis given by the concentration that inhibits 50% of the activity of CaMKIIδ. The IC50 values are generally between 10 μM and 10^−5 μM. In the table below, the IC50 values measured for several compounds (I) of the invention are presented as examples.", "units": {"IC50": "nM"}}
{"smiles": "CCn1c(N)c(C(N)=O)c(=O)c2cnc(Nc3ccc4c(c3)CCNC4)nc21", "note": "[compound 75, 7-Amino-8-ethyl-5-oxo-2-(1,2,3,4-tetrahydroisoquinolin-6-ylamino)-5,8-dihydropyrido[2,3-d]pyrimidine-6-carboxamide]", "IC50": 37}
{"smiles": "CCn1c(N)c(C(N)=O)c(=O)c2cnc(Nc3ccc(OC4CCN(C)CC4)cc3)nc21", "note": "[compound 76, 7-Amino-8-ethyl-2-[4-(1-methylpiperid-4-yloxy)phenylamino]-5-oxo-5,8-dihydropyrido[2,3-d]pyrimidine-6-carboxamide]", "IC50": 118}
{"smiles": "CC(C)Cn1c(N)c(C(N)=O)c(=O)c2cnc(Nc3ccc(CCN4CCOCC4)cc3)nc21", "note": "[compound 52, 7-Amino-8-isobutyl-2-[4-(2-morpholin-4-ylethyl)phenylamino]-5-oxo-5,8-dihydropyrido[2,3-d]pyrimidine-6-carboxamide]", "IC50": 139}
